{"source": "ChEMBL document CHEMBL3046257", "about": "“Response of sweet maize (Zea mays L.) hybrids to halosulfuron” (Crop Prot, 2008)", "type_in_all_cases": "organism-based", "key": {"[1]": {"test_system": "Zea mays", "experiment": "Toxicity in Zea mays Empire (maize) assessed as visible injury at 50 g ai/ha applied shortly post-emergence at three to five-leaf stage using backpack sprayer measured after 7 days", "conditions": "in vivo, other, 168 h"}, "[2]": {"test_system": "Zea mays", "experiment": "Toxicity in Zea mays GH2298 (maize) assessed as visible injury at 50 g ai/ha applied shortly post-emergence at three to five-leaf stage using backpack sprayer measured after 7 days", "conditions": "in vivo, other, 168 h"}, "[3]": {"test_system": "Zea mays", "experiment": "Toxicity in Zea mays GH2298 (maize) assessed as visible injury at 25 g ai/ha applied shortly post-emergence at three to five-leaf stage using backpack sprayer measured after 14 days", "conditions": "in vivo, other, 336 h"}, "[4]": {"test_system": "Zea mays", "experiment": "Toxicity in Zea mays GH2298 (maize) assessed as visible injury at 25 g ai/ha applied shortly post-emergence at three to five-leaf stage using backpack sprayer measured after 7 days", "conditions": "in vivo, other, 168 h"}, "[5]": {"test_system": "Zea mays", "experiment": "Toxicity in Zea mays GH2041 (maize) assessed as visible injury at 25 g ai/ha applied shortly post-emergence at three to five-leaf stage using backpack sprayer measured after 28 days", "conditions": "in vivo, other, 672 h"}, "[6]": {"test_system": "Zea mays", "experiment": "Toxicity in Zea mays GH2041 (maize) assessed as visible injury at 25 g ai/ha applied shortly post-emergence at three to five-leaf stage using backpack sprayer measured after 14 days", "conditions": "in vivo, other, 336 h"}, "[7]": {"test_system": "Zea mays", "experiment": "Toxicity in Zea mays GG214 (maize) assessed as visible injury at 50 g ai/ha applied shortly post-emergence at three to five-leaf stage using backpack sprayer measured after 14 days", "conditions": "in vivo, other, 336 h"}, "[8]": {"test_system": "Zea mays", "experiment": "Toxicity in Zea mays GH2041 (maize) assessed as visible injury at 50 g ai/ha applied shortly post-emergence at three to five-leaf stage using backpack sprayer measured after 7 days", "conditions": "in vivo, other, 168 h"}, "[9]": {"test_system": "Zea mays", "experiment": "Toxicity in Zea mays GH2041 (maize) assessed as visible injury at 25 g ai/ha applied shortly post-emergence at three to five-leaf stage using backpack sprayer measured after 7 days", "conditions": "in vivo, other, 168 h"}, "[10]": {"test_system": "Zea mays", "experiment": "Toxicity in Zea mays GH2298 (maize) assessed as plant height at 25 g ai/ha applied shortly post-emergence at three to five-leaf stage using backpack sprayer measured after 21 days (Rvb =80 cm)", "conditions": "in vivo, other, 504 h"}, "[11]": {"test_system": "Zea mays", "experiment": "Toxicity in Zea mays GH2547 (maize) assessed as plant height at 25 g ai/ha applied shortly post-emergence at three to five-leaf stage using backpack sprayer measured after 21 days (Rvb =80 cm)", "conditions": "in vivo, other, 504 h"}, "[12]": {"test_system": "Zea mays", "experiment": "Toxicity in Zea mays GG446 (maize) assessed as plant height at 50 g ai/ha applied shortly post-emergence at three to five-leaf stage using backpack sprayer measured after 21 days (reference value: 85 cm)", "conditions": "in vivo, other, 504 h"}, "[13]": {"test_system": "Zea mays", "experiment": "Toxicity in Zea mays GH2547 (maize) assessed as visible injury at 50 g ai/ha applied shortly post-emergence at three to five-leaf stage using backpack sprayer measured after 7 days", "conditions": "in vivo, other, 168 h"}, "[14]": {"test_system": "Zea mays", "experiment": "Toxicity in Zea mays GG214 (maize) assessed as visible injury at 25 g ai/ha applied shortly post-emergence at three to five-leaf stage using backpack sprayer measured after 28 days", "conditions": "in vivo, other, 672 h"}, "[15]": {"test_system": "Zea mays", "experiment": "Toxicity in Zea mays GH2684 (maize) assessed as marketable yield at 25 g ai/ha applied shortly post-emergence at three to five-leaf stage using backpack sprayer (reference value: 15.5 T/ha )", "conditions": "in vivo, other"}, "[16]": {"test_system": "Zea mays", "experiment": "Toxicity in Zea mays GG214 (maize) assessed as marketable yield at 25 g ai/ha applied shortly post-emergence at three to five-leaf stage using backpack sprayer (reference value: 14.2 T/ha )", "conditions": "in vivo, other"}, "[17]": {"test_system": "Zea mays", "experiment": "Toxicity in Zea mays GG446 (maize) assessed as marketable yield at 25 g ai/ha applied shortly post-emergence at three to five-leaf stage using backpack sprayer (reference value: 20.0 T/ha )", "conditions": "in vivo, other"}, "[18]": {"test_system": "Zea mays", "experiment": "Toxicity in Zea mays GSS9299 (maize) assessed as cob size at 25 g ai/ha applied shortly post-emergence at three to five-leaf stage using backpack sprayer (reference value: 292 g)", "conditions": "in vivo, other"}, "[19]": {"test_system": "Zea mays", "experiment": "Toxicity in Zea mays GH2684 (maize) assessed as cob size at 25 g ai/ha applied shortly post-emergence at three to five-leaf stage using backpack sprayer (reference value: 340 g)", "conditions": "in vivo, other"}, "[20]": {"test_system": "Zea mays", "experiment": "Toxicity in Zea mays Empire (maize) assessed as cob size at 50 g ai/ha applied shortly post-emergence at three to five-leaf stage using backpack sprayer (reference value: 304 g)", "conditions": "in vivo, other"}, "[21]": {"test_system": "Zea mays", "experiment": "Toxicity in Zea mays Empire (maize) assessed as cob size at 25 g ai/ha applied shortly post-emergence at three to five-leaf stage using backpack sprayer (reference value: 304 g)", "conditions": "in vivo, other"}, "[22]": {"test_system": "Zea mays", "experiment": "Toxicity in Zea mays GG214 (maize) assessed as cob size at 50 g ai/ha applied shortly post-emergence at three to five-leaf stage using backpack sprayer (reference value: 292 g)", "conditions": "in vivo, other"}, "[23]": {"test_system": "Zea mays", "experiment": "Toxicity in Zea mays GSS9299 (maize) assessed as visible injury at 50 g ai/ha applied shortly post-emergence at three to five-leaf stage using backpack sprayer measured after 28 days", "conditions": "in vivo, other, 672 h"}, "[24]": {"test_system": "Zea mays", "experiment": "Toxicity in Zea mays GSS9299 (maize) assessed as visible injury at 25 g ai/ha applied shortly post-emergence at three to five-leaf stage using backpack sprayer measured after 28 days", "conditions": "in vivo, other, 672 h"}, "[25]": {"test_system": "Zea mays", "experiment": "Toxicity in Zea mays GSS9299 (maize) assessed as visible injury at 25 g ai/ha applied shortly post-emergence at three to five-leaf stage using backpack sprayer measured after 14 days", "conditions": "in vivo, other, 336 h"}, "[26]": {"test_system": "Zea mays", "experiment": "Toxicity in Zea mays GH2684 (maize) assessed as visible injury at 50 g ai/ha applied shortly post-emergence at three to five-leaf stage using backpack sprayer measured after 14 days", "conditions": "in vivo, other, 336 h"}, "[27]": {"test_system": "Zea mays", "experiment": "Toxicity in Zea mays GH2684 (maize) assessed as visible injury at 25 g ai/ha applied shortly post-emergence at three to five-leaf stage using backpack sprayer measured after 7 days", "conditions": "in vivo, other, 168 h"}, "[28]": {"test_system": "Zea mays", "experiment": "Toxicity in Zea mays GH2684 (maize) assessed as visible injury at 50 g ai/ha applied shortly post-emergence at three to five-leaf stage using backpack sprayer measured after 7 days", "conditions": "in vivo, other, 168 h"}, "[29]": {"test_system": "Zea mays", "experiment": "Toxicity in Zea mays GH2041 (maize) assessed as marketable yield at 25 g ai/ha applied shortly post-emergence at three to five-leaf stage using backpack sprayer (reference value: 12.2 T/ha )", "conditions": "in vivo, other"}, "[30]": {"test_system": "Zea mays", "experiment": "Toxicity in Zea mays GH2547 (maize) assessed as marketable yield at 50 g ai/ha applied shortly post-emergence at three to five-leaf stage using backpack sprayer (reference value: 16.7 T/ha )", "conditions": "in vivo, other"}, "[31]": {"test_system": "Zea mays", "experiment": "Toxicity in Zea mays GG214 (maize) assessed as cob size at 25 g ai/ha applied shortly post-emergence at three to five-leaf stage using backpack sprayer (reference value: 292 g)", "conditions": "in vivo, other"}, "[32]": {"test_system": "Zea mays", "experiment": "Toxicity in Zea mays GG446 (maize) assessed as cob size at 25 g ai/ha applied shortly post-emergence at three to five-leaf stage using backpack sprayer (reference value: 379 g)", "conditions": "in vivo, other"}, "[33]": {"test_system": "Zea mays", "experiment": "Toxicity in Zea mays Empire (maize) assessed as plant height at 50 g ai/ha applied shortly post-emergence at three to five-leaf stage using backpack sprayer measured after 21 days (Rvb =73 cm)", "conditions": "in vivo, other, 504 h"}}, "data": [{"smiles": "COc1cc(OC)nc(NC(=O)NS(=O)(=O)c2c(C(=O)O)c(Cl)nn2C)n1", "note": "[HALOSULFURON]", "values": [{"measurement": "Activity", "setting": "[1]", "result": 8, "unit": "%"}, {"measurement": "Activity", "setting": "[2]", "result": 6, "unit": "%"}, {"measurement": "Activity", "setting": "[3]", "result": 2, "unit": "%"}, {"measurement": "Activity", "setting": "[4]", "result": 3, "unit": "%"}, {"measurement": "Activity", "setting": "[5]", "result": 0, "unit": "%"}, {"measurement": "Activity", "setting": "[6]", "result": 1, "unit": "%"}, {"measurement": "Activity", "setting": "[7]", "result": 1, "unit": "%"}, {"measurement": "Activity", "setting": "[8]", "result": 2, "unit": "%"}, {"measurement": "Activity", "setting": "[9]", "result": 1, "unit": "%"}, {"measurement": "Activity", "setting": "[10]", "result": 76, "unit": "cm"}, {"measurement": "Activity", "setting": "[11]", "result": 78, "unit": "cm"}, {"measurement": "Activity", "setting": "[12]", "result": 82, "unit": "cm"}, {"measurement": "Activity", "setting": "[13]", "result": 2, "unit": "%"}, {"measurement": "Activity", "setting": "[14]", "result": 0, "unit": "%"}, {"measurement": "Crop_yield", "setting": "[15]", "result": 15.5, "unit": "tons/ha"}, {"measurement": "Crop_yield", "setting": "[16]", "result": 13.4, "unit": "tons/ha"}, {"measurement": "Crop_yield", "setting": "[17]", "result": 19.3, "unit": "tons/ha"}, {"measurement": "Activity", "setting": "[18]", "result": 301, "unit": "g"}, {"measurement": "Activity", "setting": "[19]", "result": 316, "unit": "g"}, {"measurement": "Activity", "setting": "[20]", "result": 289, "unit": "g"}, {"measurement": "Activity", "setting": "[21]", "result": 299, "unit": "g"}, {"measurement": "Activity", "setting": "[22]", "result": 287, "unit": "g"}, {"measurement": "Activity", "setting": "[23]", "result": 1, "unit": "%"}, {"measurement": "Activity", "setting": "[24]", "result": 0, "unit": "%"}, {"measurement": "Activity", "setting": "[25]", "result": 2, "unit": "%"}, {"measurement": "Activity", "setting": "[26]", "result": 5, "unit": "%"}, {"measurement": "Activity", "setting": "[27]", "result": 4, "unit": "%"}, {"measurement": "Activity", "setting": "[28]", "result": 7, "unit": "%"}, {"measurement": "Crop_yield", "setting": "[29]", "result": 11.8, "unit": "tons/ha"}, {"measurement": "Crop_yield", "setting": "[30]", "result": 15.7, "unit": "tons/ha"}, {"measurement": "Activity", "setting": "[31]", "result": 293, "unit": "g"}, {"measurement": "Activity", "setting": "[32]", "result": 370, "unit": "g"}, {"measurement": "Activity", "setting": "[33]", "result": 69, "unit": "cm"}]}]}
